Measured values: ChEMBL document CHEMBL5665443, “Enzyme Inhibitor Single Concentration assay results for EUbOPEN Chemogenomics Library” (2024)

Key:
[1] = target: Methyl-CpG-binding domain protein 4 (Homo sapiens) (UniProt O95243); conditions: Hit No;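 further: MBD4 activity read as fluorescence at 594 nm from cleavage and release of a quenched duplex DNA oligonucleotide, with APE1 coupled to incise the strand and raise turnover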
Description: Inhibition of MBD4 by quantifying inhibition of MBD4-mediated cleavage and dissociation of quenched duplex DNA oligonucleotides, measured as fluorescence at 594 nm. To generate a functional strand incision and increase turn-over this assay is coupled to APE1.

[2] = target: T1, Adenine DNA glycosylase (Homo sapiens) (UniProt Q9UIF7); conditions: Hit No;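 further: human MUTYH activity read as 594 nm fluorescence from cleavage and release of a quenched DNA duplex, coupled with APE1 for strand incision, lower signal meaning inhibition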
T1 sequence (whole entry): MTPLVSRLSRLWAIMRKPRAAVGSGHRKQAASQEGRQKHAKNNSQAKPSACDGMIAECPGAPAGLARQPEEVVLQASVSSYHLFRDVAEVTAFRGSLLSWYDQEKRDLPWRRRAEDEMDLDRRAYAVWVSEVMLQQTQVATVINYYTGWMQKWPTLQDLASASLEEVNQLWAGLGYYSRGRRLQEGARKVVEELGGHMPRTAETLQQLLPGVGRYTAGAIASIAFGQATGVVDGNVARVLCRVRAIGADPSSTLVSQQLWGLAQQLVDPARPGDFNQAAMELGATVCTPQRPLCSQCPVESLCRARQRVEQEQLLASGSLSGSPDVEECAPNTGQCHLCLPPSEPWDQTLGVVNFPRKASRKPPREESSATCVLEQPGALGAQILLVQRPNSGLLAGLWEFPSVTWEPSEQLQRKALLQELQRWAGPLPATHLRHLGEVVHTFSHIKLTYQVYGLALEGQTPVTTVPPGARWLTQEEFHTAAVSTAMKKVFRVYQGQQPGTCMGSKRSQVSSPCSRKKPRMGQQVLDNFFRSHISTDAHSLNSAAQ
Description: Inhibition of MUTYH by quantifying inhibition of MUTYH-mediated cleavage and dissociation of quenched duplex DNA oligonucleotides, measured as fluorescence at 594 nm. To generate a functional strand incision and increase turn-over this assay is coupled to APE1.

[3] = target: T2, Endonuclease 8-like 2 (Homo sapiens) (UniProt Q969S2); conditions: Hit No;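 further: fluorescence at 594 nm reports NEIL2 cutting and release of a quenched double-stranded DNA oligo substrate, reduced signal read as inhibition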
T2 sequence (whole entry): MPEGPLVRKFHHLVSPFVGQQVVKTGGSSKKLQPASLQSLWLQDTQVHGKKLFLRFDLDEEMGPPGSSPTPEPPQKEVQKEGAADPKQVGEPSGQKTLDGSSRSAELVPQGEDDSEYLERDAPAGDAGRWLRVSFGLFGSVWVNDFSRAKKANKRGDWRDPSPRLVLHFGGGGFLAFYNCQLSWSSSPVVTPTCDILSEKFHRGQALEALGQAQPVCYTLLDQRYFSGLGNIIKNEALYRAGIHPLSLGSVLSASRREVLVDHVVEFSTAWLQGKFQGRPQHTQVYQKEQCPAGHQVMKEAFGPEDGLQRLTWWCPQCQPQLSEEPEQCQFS
Description: Inhibition of NEIL2 by quantifying inhibition of NEIL2-mediated cleavage and dissociation of quenched duplex DNA oligonucleotides, measured as fluorescence at 594 nm.

[4] = target: T3, Endonuclease III-like protein 1 (Homo sapiens) (UniProt P78549); conditions: Hit No;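 further: enzyme assay tracking NTHL1 cutting and release of a quenched double-stranded DNA oligo substrate, read as fluorescence at 594 nm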
T3 sequence (whole entry): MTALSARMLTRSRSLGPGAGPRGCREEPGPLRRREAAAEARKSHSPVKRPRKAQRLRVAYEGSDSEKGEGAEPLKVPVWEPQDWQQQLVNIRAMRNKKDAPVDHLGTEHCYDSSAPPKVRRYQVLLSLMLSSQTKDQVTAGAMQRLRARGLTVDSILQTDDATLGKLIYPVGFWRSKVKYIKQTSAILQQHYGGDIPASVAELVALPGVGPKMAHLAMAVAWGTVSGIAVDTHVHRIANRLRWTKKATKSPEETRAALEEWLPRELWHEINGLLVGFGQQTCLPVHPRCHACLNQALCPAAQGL
Description: Inhibition of NTHL1 by quantifying inhibition of NTHL1-mediated cleavage and dissociation of quenched duplex DNA oligonucleotides, measured as fluorescence at 594 nm.

[5] = target: N-glycosylase/DNA lyase (Homo sapiens) (UniProt O15527); conditions: Hit No;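 further: OGG1 cleavage of a quenched duplex DNA oligonucleotide, coupled to APE1 for strand incision, read as fluorescence at 594 nm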
Description: Inhibition of OGG1 by quantifying inhibition of OGG1-mediated cleavage and dissociation of quenched duplex DNA oligonucleotides, measured as fluorescence at 594 nm. To generate a functional strand incision and increase turn-over this assay is coupled to APE1.

[6] = target: T4, Single-strand selective monofunctional uracil DNA glycosylase (Homo sapiens) (UniProt Q53HV7); conditions: Hit No;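 further: enzymatic SMUG1 assay coupled with APE1, reading fluorescence at 594 nm released when a quenched double-stranded DNA oligonucleotide substrate is cleaved and separated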
T4 sequence (whole entry): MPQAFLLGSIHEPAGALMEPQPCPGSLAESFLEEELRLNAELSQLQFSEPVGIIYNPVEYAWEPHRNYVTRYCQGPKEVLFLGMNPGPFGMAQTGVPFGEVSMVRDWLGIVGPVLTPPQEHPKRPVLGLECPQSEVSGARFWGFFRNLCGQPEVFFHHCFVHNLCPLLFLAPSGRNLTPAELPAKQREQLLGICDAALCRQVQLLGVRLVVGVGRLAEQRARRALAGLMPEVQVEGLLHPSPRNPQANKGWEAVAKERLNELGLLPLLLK
Description: Inhibition of SMUG1 by quantifying inhibition of SMUG1-mediated cleavage and dissociation of quenched duplex DNA oligonucleotides, measured as fluorescence at 594 nm. To generate a functional strand incision and increase turn-over this assay is coupled to APE1.

[7] = target: G/T mismatch-specific thymine DNA glycosylase (Homo sapiens) (UniProt Q13569);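 further: human TDG cleavage of quenched duplex DNA oligonucleotides coupled to APE1, strand release read as fluorescence at 594 nm, inhibition of TDG activity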
Description: Inhibition of TDG by quantifying inhibition of TDG-mediated cleavage and dissociation of quenched duplex DNA oligonucleotides, measured as fluorescence at 594 nm. To generate a functional strand incision and increase turn-over this assay is coupled to APE1.

[8] = target: Uracil-DNA glycosylase (Homo sapiens) (UniProt P13051); conditions: Hit No;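 further: UNG excision on a quenched double-stranded DNA oligo probe, with APE1 added for strand incision and turnover, read as fluorescence at 594 nm as strands separate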
Description: Inhibition of UNG by quantifying inhibition of UNG-mediated cleavage and dissociation of quenched duplex DNA oligonucleotides, measured as fluorescence at 594 nm. To generate a functional strand incision and increase turn-over this assay is coupled to APE1.

[9] = target: Endonuclease 8-like 1 (Homo sapiens) (UniProt Q96FI4); conditions: Hit No;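 further: fluorescence at 594 nm from quenched duplex DNA oligonucleotides released by NEIL1 cleavage and strand separation, reported as reduction of this enzyme activity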
Description: Inhibition of NEIL1 by quantifying inhibition of NEIL1-mediated cleavage and dissociation of quenched duplex DNA oligonucleotides, measured as fluorescence at 594 nm.

[10] = Compound Concentration 10.0 uM, Hit No
[11] = Compound Concentration 1.0 uM, Hit No

Chain of Uracil-DNA glycosylase (Homo sapiens) (P13051 whole entry): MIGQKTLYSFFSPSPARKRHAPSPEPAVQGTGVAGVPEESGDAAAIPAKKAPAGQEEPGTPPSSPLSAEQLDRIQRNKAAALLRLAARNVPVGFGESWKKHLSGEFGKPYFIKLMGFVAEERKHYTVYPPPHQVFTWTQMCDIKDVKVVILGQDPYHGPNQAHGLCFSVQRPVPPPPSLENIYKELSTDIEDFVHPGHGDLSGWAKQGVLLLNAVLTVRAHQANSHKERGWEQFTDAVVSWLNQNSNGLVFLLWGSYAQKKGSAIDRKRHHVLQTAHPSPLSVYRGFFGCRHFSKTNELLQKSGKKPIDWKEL
Chain of G/T mismatch-specific thymine DNA glycosylase (Homo sapiens) (Q13569 whole entry): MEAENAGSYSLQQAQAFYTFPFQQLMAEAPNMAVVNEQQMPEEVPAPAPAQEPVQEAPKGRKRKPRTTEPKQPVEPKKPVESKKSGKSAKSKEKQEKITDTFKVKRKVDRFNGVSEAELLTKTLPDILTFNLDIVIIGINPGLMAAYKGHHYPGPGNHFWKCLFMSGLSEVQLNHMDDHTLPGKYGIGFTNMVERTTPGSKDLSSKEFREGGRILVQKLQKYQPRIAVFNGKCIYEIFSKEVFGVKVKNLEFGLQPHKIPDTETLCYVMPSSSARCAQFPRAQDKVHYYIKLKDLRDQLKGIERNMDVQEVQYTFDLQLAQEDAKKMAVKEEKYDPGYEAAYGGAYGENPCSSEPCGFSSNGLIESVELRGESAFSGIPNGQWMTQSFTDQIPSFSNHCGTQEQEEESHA
Chain of Methyl-CpG-binding domain protein 4 (Homo sapiens) (O95243 whole entry, the tested form may be a part): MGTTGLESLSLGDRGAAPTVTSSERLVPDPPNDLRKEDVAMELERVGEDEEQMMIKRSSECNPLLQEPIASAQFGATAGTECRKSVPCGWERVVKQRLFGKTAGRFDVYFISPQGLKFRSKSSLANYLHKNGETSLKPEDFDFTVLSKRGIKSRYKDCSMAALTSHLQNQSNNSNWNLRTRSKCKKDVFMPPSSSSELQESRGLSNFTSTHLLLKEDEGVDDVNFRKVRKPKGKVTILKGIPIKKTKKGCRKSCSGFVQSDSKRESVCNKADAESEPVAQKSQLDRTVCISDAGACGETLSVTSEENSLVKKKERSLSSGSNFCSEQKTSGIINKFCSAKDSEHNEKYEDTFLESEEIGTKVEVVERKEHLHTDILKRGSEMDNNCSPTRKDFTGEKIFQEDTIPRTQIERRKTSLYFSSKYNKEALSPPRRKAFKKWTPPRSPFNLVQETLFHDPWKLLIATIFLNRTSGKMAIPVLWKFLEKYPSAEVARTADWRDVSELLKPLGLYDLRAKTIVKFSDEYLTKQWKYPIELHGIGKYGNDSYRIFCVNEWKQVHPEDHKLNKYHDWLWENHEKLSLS
Chain of Endonuclease 8-like 1 (Homo sapiens) (Q96FI4 whole entry): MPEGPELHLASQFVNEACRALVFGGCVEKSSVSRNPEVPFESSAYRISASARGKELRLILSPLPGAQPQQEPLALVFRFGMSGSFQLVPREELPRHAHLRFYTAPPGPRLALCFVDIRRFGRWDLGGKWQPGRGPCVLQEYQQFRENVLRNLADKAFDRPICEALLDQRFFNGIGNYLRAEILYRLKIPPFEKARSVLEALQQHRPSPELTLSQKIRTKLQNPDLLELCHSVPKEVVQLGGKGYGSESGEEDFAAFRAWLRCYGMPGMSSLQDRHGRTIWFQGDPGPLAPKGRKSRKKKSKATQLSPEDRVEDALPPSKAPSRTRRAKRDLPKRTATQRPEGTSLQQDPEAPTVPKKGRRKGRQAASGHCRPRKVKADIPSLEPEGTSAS
Chain of N-glycosylase/DNA lyase (Homo sapiens) (O15527 whole entry): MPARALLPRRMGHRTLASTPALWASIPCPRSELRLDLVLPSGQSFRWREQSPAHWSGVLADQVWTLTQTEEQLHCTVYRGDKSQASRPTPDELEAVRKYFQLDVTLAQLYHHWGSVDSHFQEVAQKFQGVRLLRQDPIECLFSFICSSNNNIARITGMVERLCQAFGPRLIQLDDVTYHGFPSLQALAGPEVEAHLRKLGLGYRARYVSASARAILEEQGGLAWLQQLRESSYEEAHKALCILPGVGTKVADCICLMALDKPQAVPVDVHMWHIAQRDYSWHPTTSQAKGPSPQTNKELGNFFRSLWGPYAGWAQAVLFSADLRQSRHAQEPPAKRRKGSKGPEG

| Compound | inhibition ([1]; Compound Concentration 10.0 uM) | inhibition ([2]; Compound Concentration 10.0 uM) | inhibition ([3]; Compound Concentration 10.0 uM) | inhibition ([4]; Compound Concentration 10.0 uM) | inhibition ([5]; Compound Concentration 10.0 uM) | inhibition ([6]; Compound Concentration 10.0 uM) | inhibition [7, 10] | inhibition ([8]; Compound Concentration 10.0 uM) | inhibition ([1]; Compound Concentration 1.0 uM) | inhibition ([2]; Compound Concentration 1.0 uM) | inhibition ([3]; Compound Concentration 1.0 uM) | inhibition ([4]; Compound Concentration 1.0 uM) | inhibition ([5]; Compound Concentration 1.0 uM) | inhibition ([6]; Compound Concentration 1.0 uM) | inhibition [7, 11] | inhibition ([8]; Compound Concentration 1.0 uM) | inhibition ([9]; Compound Concentration 1.0 uM) | inhibition ([9]; Compound Concentration 10.0 uM) | inhibition ([7]; Compound Concentration 1.0 uM, Hit Yes) |
| --- | --- | --- | --- | --- | --- | --- | --- | --- | --- | --- | --- | --- | --- | --- | --- | --- | --- | --- | --- |
| CC(=O)Nc1c(C(C)=O)c(=O)n(C)c2nc(-c3ccc(Cl)cc3Cl)c(-c3ccc(Cl)cc3)cc12 | 61% | 22.8% | 5.63% | -6.55% | 2.2% | 9.09% | 47.2% | 1.63% |  |  |  |  |  |  |  |  |  |  |  |
| Cc1c(NC(=O)COc2ccc(Cl)cc2C(=O)c2cc(F)cc(C(F)(F)F)c2)ccc(C(=O)O)c1F | 59.6% | 7.33% | 17.9% | -8.52% | 35.9% | 10.3% | 58.6% | 4.37% |  |  |  |  |  |  |  |  |  |  |  |
| CN(C)C(=O)/C(C#N)=C/c1ccc(-c2nc3cnc4[nH]ccc4c3n2C2CCCCC2)o1 |  |  |  |  |  |  |  |  | 2.33% | -2.18% | -0.572% | -5.49% | 10.1% | 29.1% | 70.6% | 8.33% |  |  |  |
| CN1C(=O)[C@@H](N2CCc3cn(Cc4ccccc4)nc3C2=O)COc2ccccc21 |  |  |  |  |  |  |  |  | 21.1% | 5.54% | -5.67% | 1.82% | 5.71% | 12.5% | 42.8% | 2.22% |  |  |  |
| O=C(O)CCCc1cc2cc(Cl)ccc2n1S(=O)(=O)c1ccc2ncsc2c1 | 58.8% | -4.2% | 2.32% | 1.34% | 5.59% | 23.9% | 99% | -3.11% |  |  |  |  |  |  |  |  |  |  |  |
| O=C(Nc1ccc(-n2nc(-c3cccnc3)cc2C(F)(F)F)cn1)c1ccc(-c2ccccc2)c(F)c1 |  |  |  |  |  |  |  |  | 59.3% | -4.64% | 4.61% | 0.685% | 18.5% | 24.9% | 56.1% | 6.15% |  |  |  |
| Cc1cc(OC2CCS(=O)(=O)CC2)cc(C)c1-c1cccc(COc2ccc(CCC(=O)O)c(F)c2)c1 | 58.2% | 3.94% | -9.42% | -0.63% | 48.4% | 12.1% | 45.8% | 3.54% |  |  |  |  |  |  |  |  |  |  |  |
| O=C(N1CCS(=O)(=O)CC1)N1C[C@H](c2ccc(OC(F)(F)F)cc2)C[C@H](c2nc(C3CC3)no2)C1 | 55.6% | 1.64% | -9.67% | -9.83% | 1.66% | 9.87% | 56.4% | -2.41% |  |  |  |  |  |  |  |  |  |  |  |
| CC(C)C(=O)N1CCC(c2cn(C)c3ncc(NC(=O)c4cccc(C#N)c4)c(C(F)(F)F)c23)CC1 | 55.2% | 7.16% | -3.04% | 9.89% | 7.16% | 26.5% | 58.4% | 5.34% |  |  |  |  |  |  |  |  |  |  |  |
| CN(C)c1ncnc(-c2ccc3nc(Nc4cc(CN5CCN(C(=O)CC(F)(F)F)CC5)ccn4)[nH]c3c2)c1Cl | 18% | -7.96% | -5.65% | -0.841% | 9.13% | 12.7% | 65% | 1.3% |  |  |  |  |  |  |  |  |  |  |  |
| COc1cc(F)ccc1-c1ncnc(Nc2cccc(C[S@](C)(=N)=O)c2)n1 | -7.86% | -2.6% | -10% | -0.61% | 9.82% | 21.4% | 49.6% | 2.17% |  |  |  |  |  |  |  |  |  |  |  |
| COCCOc1nc(-c2ccc(Cl)nc2)nc2c1CN(C(=O)c1ncn3ccccc13)CC2 |  |  |  |  |  |  |  |  | 67.8% | -6.39% |  | -3.92% | -1.84% | 8.24% | 39.9% | -0.22% | -3.17% |  |  |
| CNC(=O)Nc1ccc2c(c1)CC[C@@]21OC(=O)N(CC(=O)N(Cc2ccc(F)cc2)[C@@H](C)C(F)(F)F)C1=O |  |  |  |  |  |  |  |  | 58.8% | 0.168% |  | -7.2% | -4.69% | 13.6% | 100% | 5.87% | -8.77% |  |  |
| COc1cc(N(C)c2ccnc3ccc(C(F)(F)F)cc23)cc(OC)c1OC | 5.39% | -1.88% |  | 2.18% | 1.25% | 13.4% | 33.1% | 1.59% |  |  |  |  |  |  |  |  |  | 4.23% |  |
| c1ccc(-c2oc3ncnc(NC[C@@H]4CCCO4)c3c2-c2ccccc2)cc1 |  |  |  |  |  |  |  |  | 18.1% | 3.16% |  | 7.06% | 6.47% | 21.6% | 35.9% | 4.04% | -7.66% |  |  |
| CCOCCn1cc(C(=O)Nc2ccc(-n3nc(-c4cccnc4)cc3C(F)(F)F)cn2)ccc1=O | 54.1% | -6.66% |  | 0.685% | 3.33% | 18.6% | 35.4% | 1.33% |  |  |  |  |  |  |  |  |  | -4.68% |  |
| CN(C)C(=O)Cn1cc(-c2ccc(-c3nnc4ccccn34)cc2)cn1 |  |  |  |  |  |  |  |  | 7.42% | 27.4% |  | -9.68% | 3.29% | 22.7% |  | 2.39% | -1.84% |  | 100% |
